US20100041089A1, “IMPROVED METHOD FOR DETECTING CHEMICAL […]” (priority 2006, published 2010)

Test system: yeast genes (expressed mRNA)
Assay: DNA chip measurement of expressed mRNA of yeast genes after culture with a toxic chemical substance
Assay type: cell-based, Saccharomyces cerevisiae S288C
Settings: for level of expressed mRNA in the presence of chemical substance / level in the absence of chemical substance: cultured two hours with the chemical substance; for The level of expressed mRNA in the presence of chemical substance/The level of expressed mRNA in the absence of chemical substance: cultured two hours with substance
Method: Yeast (Saccharomyces cerevisiae S288C (a SUC2mal mel gap2 CUP1)) were cultured at 25° C. on YPD medium (yeast extract 1%, polypeptone 2%, glucose 2%). One of toxic chemical substances was added to the cell at logarithmic growth phase, and the cell was further cultured for two hours. Cell was cultured without any chemical substance in the same condition, and was used as a control. Concentrations of the chemical substances were defined to inhibit the growth of the yeast but not lead to death.
After the completion of cultivation, the culture was centrifuged to collect the cells. To the cells, sodium acetate buffer (50 mM sodium acetate, 10 mM EDTA, 1% SDS) was added, and the mixture was shaken at 65° C. for five minutes, followed by returning to room temperature, and obtaining the supernatant, which procedure was repeated two times. To the supernatant, ½ amount of a solution of phenol/chloroform (1:1) was added, and the mixture was centrifuged to give a supernatant, an equal amount of chloroform was added, and the mixture was centrifuged to give a supernatant. To the supernatant, an equal amount of isopropanol containing 0.3 M sodium acetate was added, and the mixture was allowed to stand at room temperature for 30 minutes, after which the mixture was centrifuged to give sediment of the whole RNAs. Seventy % ethanol was added to the sediment, and the mixture was again centrifuged to give sediment, which was then dried and dissolved in water. mRNA was isolated from the whole RNAs as followings. In view of the fact that a poly A chain is attached to the 3′ terminus of mRNA, a polynucleotide having a poly T structure which was immobilized on the surface of latex beads was used to trap the mRNA, and then the mRNA was washed and eluted with spine column (Oligotex-dT30<Super>mRNA Purification Kit, Takara). Reverse transcription of the mRNA was conducted with a reverse transcriptase (Super Script II Reverse Transcriptase; catalogue No. 18064-014, GibcoBRL) using fluorescence-labeled nucleotides to give cDNAs that were introduced with Cy3-dUTP or Cy5-dUTP during the reverse transcription.
The labeled cDNAs were dissolved in TE buffer (10 mM Tris-HCl/1 mM EDTA, pH 8.0), and the solution was dropped on the DNA chip containing the whole genes of yeast (DNA Chip Research Inc. Japan) so that the cDNAs were hybridized on the DNA chip at 65° C. for over 12 hours. The fluoresces intensity of the DNA chip was read with a scanner, and the ratio relative to the fluorescence intensity resulting from the absence of chemical substance was estimated as the following, which is shown in Tables 1 to 9.
In the Tables, “Intensity” indicated in the rightmost column is a value of the level of expressed mRNA of each gene in control cells as divided by the average level of the expressions of the whole genes. A gene of which mRNA level is lower in control, and is higher in cases of addition of chemical substance, is especially useful in the detection of toxic substances.
Here, when a ratio of an amount of mRNA expressed in the presence of the chemical substance to an amount of mRNA expressed in the absence of the chemical substance is two or more, then it is considered significant.

Substance: Na2As [(1)]
- level of expressed mRNA in the presence of chemical substance / level in the absence of chemical substance (yeast gene YNL058C): 2.0
- level of expressed mRNA in the presence of chemical substance / level in the absence of chemical substance (yeast gene YNL063W): 0.9
- The level of expressed mRNA in the presence of chemical substance/The level of expressed mRNA in the absence of chemical substance (yeast gene YNL074C): 0.9
- The level of expressed mRNA in the presence of chemical substance/The level of expressed mRNA in the absence of chemical substance (yeast gene YNL092W): 1.3
- The level of expressed mRNA in the presence of chemical substance/The level of expressed mRNA in the absence of chemical substance (yeast gene YNL115C): 0.7
- The level of expressed mRNA in the presence of chemical substance/The level of expressed mRNA in the absence of chemical substance (yeast gene YNL156C): 1.1
- level of expressed mRNA in the presence of chemical substance / level in the absence of chemical substance (yeast gene YNL176C): 1.1
- level of expressed mRNA in the presence of chemical substance / level in the absence of chemical substance (yeast gene YNL194C): 1.6
- level of expressed mRNA in the presence of chemical substance / level in the absence of chemical substance (yeast gene YNL200C): 1.0
- The level of expressed mRNA in the presence of chemical substance/The level of expressed mRNA in the absence of chemical substance (yeast gene YNL234W): 1.1
- level of expressed mRNA in the presence of chemical substance / level in the absence of chemical substance (yeast gene YNL253W): 1.3
- level of expressed mRNA in the presence of chemical substance / level in the absence of chemical substance (yeast gene YNL276C): 1.3
- The level of expressed mRNA in the presence of chemical substance/The level of expressed mRNA in the absence of chemical substance (yeast gene YNL281W): 1.0
- The level of expressed mRNA in the presence of chemical substance/The level of expressed mRNA in the absence of chemical substance (yeast gene YNL305C): 0.9
- level of expressed mRNA in the presence of chemical substance / level in the absence of chemical substance (yeast gene YNR051C): 0.7
- The level of expressed mRNA in the presence of chemical substance/The level of expressed mRNA in the absence of chemical substance (yeast gene YNR068C): 1.2
- level of expressed mRNA in the presence of chemical substance / level in the absence of chemical substance (yeast gene YOL026C): 1.2
- The level of expressed mRNA in the presence of chemical substance/The level of expressed mRNA in the absence of chemical substance (yeast gene YOL032W): 1.3
- The level of expressed mRNA in the presence of chemical substance/The level of expressed mRNA in the absence of chemical substance (yeast gene YOL036W): 0.8
- The level of expressed mRNA in the presence of chemical substance/The level of expressed mRNA in the absence of chemical substance (yeast gene YOL047C): 1.4
- The level of expressed mRNA in the presence of chemical substance/The level of expressed mRNA in the absence of chemical substance (yeast gene YOL071W): 1.3
- The level of expressed mRNA in the presence of chemical substance/The level of expressed mRNA in the absence of chemical substance (yeast gene YOL082W): 1.0
- The level of expressed mRNA in the presence of chemical substance/The level of expressed mRNA in the absence of chemical substance (yeast gene YOL083W): 1.1
- The level of expressed mRNA in the presence of chemical substance/The level of expressed mRNA in the absence of chemical substance (yeast gene YOL117W): 1.0
- The level of expressed mRNA in the presence of chemical substance/The level of expressed mRNA in the absence of chemical substance (yeast gene YOL131W): 1.0
- The level of expressed mRNA in the presence of chemical substance/The level of expressed mRNA in the absence of chemical substance (yeast gene YOL150C): 4.1
- The level of expressed mRNA in the presence of chemical substance/The level of expressed mRNA in the absence of chemical substance (yeast gene YOL162W): 2.0
- The level of expressed mRNA in the presence of chemical substance/The level of expressed mRNA in the absence of chemical substance (yeast gene YOR019W): 2.9
- level of expressed mRNA in the presence of chemical substance / level in the absence of chemical substance (yeast gene YOR022C): 1.3
- level of expressed mRNA in the presence of chemical substance / level in the absence of chemical substance (yeast gene YOR087W): 0.7
- level of expressed mRNA in the presence of chemical substance / level in the absence of chemical substance (yeast gene YOR138C): 0.8
- The level of expressed mRNA in the presence of chemical substance/The level of expressed mRNA in the absence of chemical substance (yeast gene YOR197W): 0.8
- level of expressed mRNA in the presence of chemical substance / level in the absence of chemical substance (yeast gene YOR253W): 0.9
- level of expressed mRNA in the presence of chemical substance / level in the absence of chemical substance (yeast gene YOR267C): 0.8
- level of expressed mRNA in the presence of chemical substance / level in the absence of chemical substance (yeast gene YOR325W): 1.0
- level of expressed mRNA in the presence of chemical substance / level in the absence of chemical substance (yeast gene YPL005W): 1.0
- The level of expressed mRNA in the presence of chemical substance/The level of expressed mRNA in the absence of chemical substance (yeast gene YPL087W): 1.0
- level of expressed mRNA in the presence of chemical substance / level in the absence of chemical substance (yeast gene YPL150W): 0.7
- level of expressed mRNA in the presence of chemical substance / level in the absence of chemical substance (yeast gene YPL152W): 1.4
- level of expressed mRNA in the presence of chemical substance / level in the absence of chemical substance (yeast gene YPL168W): 1.1
- level of expressed mRNA in the presence of chemical substance / level in the absence of chemical substance (yeast gene YPL180W): 0.9
- level of expressed mRNA in the presence of chemical substance / level in the absence of chemical substance (yeast gene YPL188W): 1.3
- The level of expressed mRNA in the presence of chemical substance/The level of expressed mRNA in the absence of chemical substance (yeast gene YPL196W): 1.3
- The level of expressed mRNA in the presence of chemical substance/The level of expressed mRNA in the absence of chemical substance (yeast gene YPL206C): 1.0
- level of expressed mRNA in the presence of chemical substance / level in the absence of chemical substance (yeast gene YPL221W): 0.9
- The level of expressed mRNA in the presence of chemical substance/The level of expressed mRNA in the absence of chemical substance (yeast gene YPL222W): 0.9
- level of expressed mRNA in the presence of chemical substance / level in the absence of chemical substance (yeast gene YPL225W): 1.3
- The level of expressed mRNA in the presence of chemical substance/The level of expressed mRNA in the absence of chemical substance (yeast gene YPR023C): 1.2
- level of expressed mRNA in the presence of chemical substance / level in the absence of chemical substance (yeast gene YPR049C): 1.0
- level of expressed mRNA in the presence of chemical substance / level in the absence of chemical substance (yeast gene YPR146C): 0.8
- level of expressed mRNA in the presence of chemical substance / level in the absence of chemical substance (yeast gene YPR148C): 1.1
- The level of expressed mRNA in the presence of chemical substance/The level of expressed mRNA in the absence of chemical substance (yeast gene YPR151C): 2.3
- level of expressed mRNA in the presence of chemical substance / level in the absence of chemical substance (yeast gene YPR172W): 1.1
